{"source": "patent US20140357512A1", "about": "“HISTONE DEACETYLASE (HDAC) BIOMARKERS IN MULTIPLE MYELOMA” (priority 2013, published 2014)", "system": "human myeloma cell line MM.1S", "experiment": "SILAC acetylated-lysine peptide profiling, HDAC inhibitor vs DMSO (light/heavy ratio)", "format": "cell-based", "source_text": "An embodiment of the invention comprises utilizing the SILAC method in order to quantitate changes in protein expression between two or more populations of cells. The SILAC method is a technique based on mass spectrometry that detects differences in protein abundance among samples using non-radioactive isotopic labeling. The SILAC method is known in the art, and described in detail in Ong et al., “Stable Isotope Labeling by Amino Acids in Cell Culture, SILAC, as a Simple and Accurate Approach to Expression Proteomics”, Molecular & Cellular Proteomics, vol. 1, pp. 376-386 (2002), which is incorporated herein by reference in its entirety.\nBriefly, the SILAC method involves growing two populations of cells in cell culture. The first population of cells is grown in growth media containing normal amino acids (“normal media”). The second population of cells is grown in media lacking a standard essential amino acid (such as lysine), but is then supplemented with a non-radioactive, isotopically labeled form of that essential amino acid (such as lysine labeled with ^13C atoms, rather than normal ^12C atoms), which is called “heavy media”. When the two populations of cells are each growing in the medium, they incorporate the amino acids into all of their proteins. The growth of cells maintained in the heavy media is no different from that in normal media. All peptides containing the heavy amino acids are heavier than their normal counterparts. The cells from each of the two populations of cells are lysed. The lysates from each of the two cell populations are then combined. The combined cell lysates are then analyzed by mass spectrometry. Pairs of chemically identical peptides of different stable isotope composition can be differentiated in a mass spectrometer due to their difference in mass. The ratio of peak intensities in the mass spectrum for such peptide pairs reflects the abundance ratio for the two proteins.\nThis example describes SILAC studies that were performed to compare the effects of three different HDAC inhibitors (Compound A, Compound B, and tubastatin A) to a control on a human multiple myeloma cell line. The HDAC inhibitors were also compared amongst themselves to determine differences in their effects.\nA human myeloma cell line MM.1S was grown using either ^12C (light) or ^13C (heavy) lysine containing culture medium. The “heavy” cells were treated with DMSO as the control, and the “light” cells were treated with a single HDAC inhibitor at 37° C. for 6 hours. The heavy and light cells were lysed, and the lysates were mixed in 1:1 ratio and digested with the protease trypsin. The acetylated lysine containing peptides (due to the action of the HDAC inhibitor) in the digested peptide pool were captured by a non-specific anti-acetylated lysine antibody cocktail (the antibodies identify both light and heavy acetylated peptides), and subjected to mass spectrometry analysis in order to identify thousands of individual peptides.\nThousands of peptides were identified in pairs (^12C and ^13C) due to their known mass differences. The amino acid sequence and quantitative ratio (Light/Heavy) of a given peptide in two differentially treated cell lysates were then determined and annotated with their possible protein (gene) sources.\nAs stated above, three HDAC inhibitors (Compound A, Compound B, and Tubastatin A) were used. Thus, the SILAC method was performed three times, with a different HDAC inhibitor compared to a control each time. Accordingly, there are three pairs of quantitative data in the table below, i.e., Compound A:DMSO, Compound B:DMSO, and Tubastatin A:DMSO. A cut-off of 1.30 fold of change (increase or decrease) was then used to determine “changed” or “+” in the table, and any peptides with a fold of change less than 1.3 fold were determined to be “unchanged” or “0” in the table. Those peptides that were not identified were marked as “NA” in the table. […]", "data": [{"smiles": "O=C(CCCCCCNC(=O)c1cnc(N(c2ccccc2)c2ccccc2)nc1)NO", "note": "[Compound A, 2-(diphenylamino)-N-(7-(hydroxyamino)-7-oxoheptyl)pyrimidine-5-carboxamide]", "values": [{"measurement": "light to heavy ratio (L/H ratio) of acetylated peptide […](ac)FLK (SEQ ID NO: 326)", "setting": "Isoform 5 of Transcriptional regulator ATRX [812], ATRX, drug:DMSO", "result": 0.00, "unit": "log 2"}, {"measurement": "light to heavy ratio (L/H ratio), log 2 scale, acetylated peptide YNDPIYVK(ac)LEK (SEQ ID NO: 764)", "setting": "Isoform A of AP-1 complex subunit beta-1 [335], gene AP1B1, drug:DMSO", "result": 0.93}, {"measurement": "light to heavy ratio (L/H ratio) of acetylated peptide K(ac)VLFTCFK (SEQ ID NO: 529)", "setting": "Isoform Beta-2 of DNA topoisomerase 2-beta [749], gene TOP2B, inhibitor:DMSO", "result": "−0.42", "unit": "log 2"}, {"measurement": "light to heavy ratio (L/H ratio) of acetylated peptide K(ac)SSETLR (SEQ ID NO: 601)", "setting": "Isoform CNPI of 23-cyclic-nucleotide 3-phosphodiesterase [177], gene CNP, inhibitor:DMSO", "result": 0.46, "unit": "log 2"}, {"measurement": "light to heavy ratio (L/H ratio) of acetylated peptide MVAAAK(ac)YAR (SEQ ID NO: 324)", "setting": "Isoform Heart of ATP synthase subunit gamma mitochondrial [55], ATP5C1, drug:DMSO", "result": 0.00, "unit": "log 2"}, {"measurement": "light to heavy ratio (L/H ratio), log 2 scale, acetylated peptide VNK(ac)EVER (SEQ ID NO: 782)", "setting": "Isoform Long of ES1 protein homolog mitochondrial [157], gene C21orf33, drug:DMSO", "result": 1.00}, {"measurement": "light to heavy ratio (L/H ratio) of acetylated peptide EFHQAGK(ac)[…] (SEQ ID NO: 623)", "setting": "Isoform Long of ES1 protein homolog mitochondrial [171], gene C21orf33, inhibitor:DMSO", "result": 0.48, "unit": "log 2"}, {"measurement": "light to heavy ratio (L/H ratio) of acetylated peptide […](ac)R (SEQ ID NO: 588)", "setting": "Isoform Long of Spectrin beta chain brain 1 [497], gene SPTBN1, inhibitor:DMSO", "result": 0.44, "unit": "log 2"}, {"measurement": "light to heavy ratio (L/H ratio) of acetylated peptide NLHSK(ac)WLK (SEQ ID NO: 589)", "setting": "Isoform Long of Spectrin beta chain brain 1 [1312], gene SPTBN1, inhibitor:DMSO", "result": 0.44, "unit": "log 2"}, {"measurement": "light to heavy ratio (L/H ratio) of acetylated peptide VPNDK(ac)YYGAQTVR (SEQ ID NO: 625)", "setting": "Isoform Mitochondrial of Fumarate hydratase mitochondrial [66], gene FH, inhibitor:DMSO", "result": 0.49, "unit": "log 2"}, {"measurement": "light to heavy ratio (L/H ratio) of acetylated peptide MMVAGFK(ac)K (SEQ ID NO: 339)", "setting": "Isoform Short of Heterogeneous nuclear ribonucleoprotein U [524], HNRNPU, drug:DMSO", "result": 0.00, "unit": "log 2"}, {"measurement": "light to heavy ratio (L/H ratio) of acetylated peptide APQCLGK(ac)FIEIAAR (SEQ ID NO: 338)", "setting": "Isoform Short of Heterogeneous nuclear ribonucleoprotein U [546], HNRNPU, drug:DMSO", "result": 0.00, "unit": "log 2"}, {"measurement": "light to heavy ratio (L/H ratio) of acetylated peptide LLEQYK(ac)EESK (SEQ ID NO: 302)", "setting": "Isoform Short of Heterogeneous nuclear ribonucleoprotein U [651], HNRNPU, drug:DMSO", "result": 0.89, "unit": "log 2"}, {"measurement": "light to heavy ratio (L/H ratio) of acetylated peptide, log 2 scale", "setting": "K(ac)[…] (SEQ ID NO: 246), Endoplasmin [270], HSP90B1", "result": "−0.54"}, {"measurement": "light to heavy ratio (L/H ratio), log 2 scale, acetylated peptide (ac)[…](ac)GAGK (SEQ ID NO: 801)", "setting": "KRR1 small subunit processome component homolog [11], gene KRR1, drug:DMSO", "result": 1.00}, {"measurement": "light to heavy ratio (L/H ratio) of acetylated peptide, log 2 scale", "setting": "KTPCGEGSK(ac)TWDR (SEQ ID NO: 245), 40S ribosomal protein S20 [75], SNORD54, RPS20", "result": "−0.69"}, {"measurement": "light to heavy ratio (L/H ratio) of acetylated peptide IVADK(ac)DYSVTANSK (SEQ ID NO: 317)", "setting": "L-lactate dehydrogenase B chain [82], LDHB, drug:DMSO", "result": 1.00, "unit": "log 2"}, {"measurement": "L/H ratio of acetylated peptide", "setting": "LAK(ac)LSDGVAVLK (SEQ ID NO: 484), 60 kDa heat shock protein mitochondrial [396], HSPD1", "result": 0.61, "unit": "log 2"}, {"measurement": "L/H ratio of acetylated peptide", "setting": "LALQK(ac)QLTK (SEQ ID NO: 495), Isoform 2 of Zinc finger protein 385C [103], ZNF385C", "result": "−1.00", "unit": "log 2"}, {"measurement": "L/H ratio of acetylated peptide IHLEIK(ac)QLNR (SEQ ID NO: 57)", "setting": "LMAN1 [346], log 2 scale, drug vs DMSO", "result": 0.00}, {"measurement": "L/H ratio of acetylated peptide", "setting": "LMK(ac)YGDSLYR (SEQ ID NO: 499), Nucleolar GTP-binding protein 1 [118], GTPBP4", "result": "−0.78", "unit": "log 2"}, {"measurement": "L/H ratio of acetylated peptide LYK(ac)[…] (SEQ ID NO: 4)", "setting": "LMNB1 [261], log 2 scale, drug vs DMSO", "result": 0.00}, {"measurement": "L/H ratio of acetylated peptide […](ac)LENAR (SEQ ID NO: 58)", "setting": "LMNB1 [271], log 2 scale, drug vs DMSO", "result": 0.00}, {"measurement": "L/H ratio of acetylated peptide GFGYK(ac)GSCFHR (SEQ ID NO: 59)", "setting": "LOC390956 [71], log 2 scale, drug vs DMSO", "result": 0.00}, {"measurement": "L/H ratio of acetylated peptide", "setting": "LTLDK(ac)LDVK (SEQ ID NO: 485), Phosphoglycerate kinase 1 [11], PGK1", "result": 0.65, "unit": "log 2"}, {"measurement": "L/H ratio of acetylated peptide", "setting": "LVDTGDK(ac)FR (SEQ ID NO: 478), Isoform Long of Spectrin beta chain brain 1 [1913], SPTBN1", "result": "−0.46", "unit": "log 2"}, {"measurement": "L/H ratio of acetylated peptide", "setting": "LVSEK(ac)LASYQAAR (SEQ ID NO: 476), Isoform 2 of Myc proto-oncogene protein [163], MYC", "result": "−0.82", "unit": "log 2"}, {"measurement": "light to heavy ratio (L/H ratio) of acetylated peptide, log 2 scale", "setting": "LYATMEK(ac)HK (SEQ ID NO: 251), Histone acetyltransferase p300 [1590], EP300", "result": "−0.43"}, {"measurement": "light to heavy ratio (L/H ratio) of acetylated peptide AVLK(ac)[…] (SEQ ID NO: 262)", "setting": "Laminin receptor-like protein LAMRL5 [89], SNORA6, RPSAP15, SNORA62, RPSA, drug:DMSO", "result": 0.41, "unit": "log 2"}, {"measurement": "light to heavy ratio (L/H ratio) of acetylated peptide IHDVLCK(ac)LVEK (SEQ ID NO: 613)", "setting": "Leucine-rich PPR motif-containing protein mitochondrial [864], gene LRPPRC, inhibitor:DMSO", "result": 0.47, "unit": "log 2"}, {"measurement": "light to heavy ratio (L/H ratio) of acetylated peptide SYVSEK(ac)DVTSAK (SEQ ID NO: 628)", "setting": "Leucine-rich PPR motif-containing protein mitochondrial [1332], gene LRPPRC, inhibitor:DMSO", "result": 0.49, "unit": "log 2"}, {"measurement": "L/H ratio of acetylated peptide ICCQFDFK(ac)R (SEQ ID NO: 60)", "setting": "MAN2A1 [373], log 2 scale, drug vs DMSO", "result": 0.00}, {"measurement": "L/H ratio of acetylated peptide YLTNQK(ac)NSNSK(ac)NDR (SEQ ID NO: 17)", "setting": "MEAF6 [69:74], log 2 scale, drug vs DMSO", "result": 1.00}, {"measurement": "L/H ratio of acetylated peptide TLVLSDK(ac)HSPQK(ac)K (SEQ ID NO: 5)", "setting": "MLL3 [2809:2814], log 2 scale, drug vs DMSO", "result": 0.00}, {"measurement": "light to heavy ratio (L/H ratio) of acetylated peptide VHLSQK(ac)YK (SEQ ID NO: 343)", "setting": "Matrin-3 [473], MATR3, SNHG4, drug:DMSO", "result": 0.00, "unit": "log 2"}, {"measurement": "light to heavy ratio (L/H ratio) of acetylated peptide FLNK(ac)LAEER (SEQ ID NO: 342)", "setting": "Matrin-3 [836], MATR3, SNHG4, drug:DMSO", "result": 0.00, "unit": "log 2"}]}]}
